Laboratory results published in US20230138395A1, “PHARMACEUTICAL COMPOSITIONS OF A THERAPEUTIC POLYENE MACROLIDE AND METHODS OF THEIR USE” (priority 2020, published 2023).
In brackets after ≈: the same amount, converted by molar mass. Several values for one entry are separate records, joined by “and”; a condition that tells them apart may be missing. Equal values may be shown once. Marks after values point to notes of the source that are not given here.

Columns and labels:
Candida albicans [1] = experiment: MIC testing (CLSI M27-A3); assay type: cell-based; parameters: MIC: unit not given beside the values; conditions: for MIC Range: in µg/mL
Candida albicans [2] = experiment: MFC determination; assay type: cell-based
C. glabrata strains [3] = experiment: MIC testing (CLSI M27-A3); assay type: cell-based; parameters: MIC: unit not given beside the values
C. glabrata strains [4] = experiment: MFC determination; assay type: cell-based; parameters: MFC: unit not given beside the values
C. krusei strains [5] = experiment: MIC testing (CLSI M27-A3); assay type: cell-based
C. krusei strains [6] = experiment: MFC determination; assay type: cell-based
C. parapsilosis = experiment: MIC testing (CLSI M27-A3); assay type: cell-based; parameters: MIC: unit not given beside the values
all Candida strains [7] = experiment: MIC testing (CLSI M27-A3), summary; assay type: cell-based
all Candida strains [8] = experiment: MFC determination, summary; assay type: cell-based
Cr. neoformans strains [9] = experiment: MIC testing (CLSI M27-A3, YNB, 72 h); assay type: cell-based, Cryptococcus neoformans
Cr. neoformans strains [10] = experiment: MFC determination; assay type: cell-based, Cryptococcus neoformans; conditions: Cr. neoformans
[11] = tested on: individual Aspergillus spp. (Table 12, species not named); experiment: MIC testing (CLSI M38-A2), Table 12; assay type: cell-based; conditions: Aspergillus sp. of Table 12, caspofungin read as MEC
[12] = tested on: individual Aspergillus spp. (Table 14, species not named); experiment: MIC testing (CLSI M38-A2), Table 14; assay type: cell-based; conditions: Aspergillus sp. of Table 14, caspofungin read as MEC
[13] = tested on: individual Aspergillus spp. (Table 14, species not named); experiment: MFC determination, Table 14; assay type: cell-based; conditions: Aspergillus sp. of Table 14
[14] = tested on: individual Aspergillus spp. (Table 15, species not named); experiment: MFC determination, Table 15; assay type: cell-based; conditions: Aspergillus sp. of Table 15
[15] = tested on: all Aspergillus strains tested; experiment: MFC determination, summary; assay type: cell-based
Fusarium strains = experiment: MIC testing (CLSI M38-A2), Table 17; assay type: cell-based, Fusarium spp.; conditions: Fusarium strains (Table 17)
[16] = tested on: Fusarium strains (Table 18); experiment: MIC testing (CLSI M38-A2), Table 18; assay type: cell-based, Fusarium spp.
[17] = tested on: Fusarium strains (Table 18); experiment: MFC determination, Table 18; assay type: cell-based, Fusarium spp.
Penicillium strains [18] = experiment: MIC testing (CLSI M38-A2); assay type: cell-based, Penicillium spp.
Penicillium strains [19] = experiment: MFC determination; assay type: cell-based, Penicillium spp.
A. fumigatus AF91 = experiment: In vitro activity (MIC) against the infecting strain, Example 17; assay type: cell-based, Aspergillus fumigatus; conditions: Aspergillus fumigatus, read-out: MIC
Protocol: Minimum Inhibitory Concentration: MIC testing was performed according to the Clinical and Laboratory Standards Institute (CLSI) M27-A3 and M38-A2 standards for the susceptibility testing of yeasts and filamentous fungi, respectively (Cryptococcus isolates were incubated for 72 h). For yeast strains, the incubation temperature and time were 35° C. and 24-48 h, respectively, and the inoculum size was 0.5-2.5×10^3 CFU/ml. For filamentous strains, the inoculum size was 0.4-5×10^4 CFU/ml, and the incubation time was strain and drug specific. RPMI 1640 was the test medium throughout, with the exception of the use of YNB for Cryptococcus. Inhibition endpoints for compound 1A were recorded at 50% and 100% after both 24 h and 48 h incubation; caspofungin results against Aspergillus strains were read as minimum effective concentrations (MEC), the lowest concentration that leads to small, rounded, compact growth as compared to the confluent growth of the control.

C. albicans SC5314 = experiment: In vitro activity (MFC) against the infecting strain, Example 18; assay type: cell-based, Candida albicans; conditions: Candida albicans, read-out: MFC
Candida albicans SC5314 = experiment: Disseminated candidiasis in immunocompromised murine model (BALB/c mice): tissue fungal burden; assay type: in vivo; conditions: 7 days
[20] = tested on: Aspergillus fumigatus AF91; experiment: Disseminated Aspergillosis in immunocompromised murine model (CD-1 mice): tissue fungal burden; conditions: 7 days
[21] = individual C. albicans strain with elevated MICs to non-polyene comparators (Table 22)
[22] = individual C. glabrata strain with elevated MICs to non-polyene comparators (Table 22)
[23] = individual C. krusei strain with elevated MICs to non-polyene comparators (Table 22)
[24] = Experiment II, 0.5 mg/kg i.v. daily
[25] = Experiment II, 1.0 mg/kg i.v. daily

C[C@@H]1[C@H](O)[C@@H](C)/C=C/C=C/C=C/C=C/C=C/C=C/C=C/[C@H](O[C@@H]2O[C@H](C)[C@@H](O)[C@H](N)[C@@H]2O)C[C@@H]2O[C@](O)(C[C@@H](O)[C@H](O)CC[C@@H](O)C[C@@H](O)C[C@@H](O)CC(=O)O[C@H]1C)C[C@H](O)[C@H]2C [Compound 1A]
MIC Range (Candida albicans [1]; Fluconazole-resistant C. albicans n = 7): 1-2
MIC Range (Candida albicans [1]; Fluconazole-susceptible C. albicans n = 13): 0.125-1
MIC50 (Candida albicans [1]; Fluconazole-susceptible C. albicans n = 13, inhibits 50% of strains): 0.5 µg/mL (≈ 0.559 µM)
MIC90 (Candida albicans [1]; Fluconazole-susceptible C. albicans n = 13, inhibits 90% of strains): 1 µg/mL (≈ 1.12 µM)
MIC (Candida albicans [1]; [21]): 1 (6×) and 2
MFC Range (Candida albicans [2]; Fluconazole-susceptible C. albicans n = 13, in µg/mL): 0.125-1
MFC50 (Candida albicans [2]; Fluconazole-susceptible C. albicans n = 13, kills 50% of strains): 0.5 µg/mL (≈ 0.559 µM)
MFC90 (Candida albicans [2]; Fluconazole-susceptible C. albicans n = 13, kills 90% of strains): 1 µg/mL (≈ 1.12 µM)
MFC (Candida albicans [2]; [21]): 1 (5×) and >4 and 2
MIC Range (C. glabrata strains [3]; C. glabrata strains, in µg/mL): 0.25-2
MIC50 (C. glabrata strains [3]; C. glabrata, inhibits 50% of strains): 1 µg/mL (≈ 1.12 µM)
MIC90 (C. glabrata strains [3]; C. glabrata, inhibits 90% of strains): 2 µg/mL (≈ 2.24 µM)
MIC (C. glabrata strains [3]; [22]): 1 (5×) and 2
MFC Range (C. glabrata strains [4]; C. glabrata strains, in µg/mL): 0.5-2
MFC50 (C. glabrata strains [4]; C. glabrata, kills 50% of strains): 1 µg/mL (≈ 1.12 µM)
MFC90 (C. glabrata strains [4]; C. glabrata, kills 90% of strains): 2 µg/mL (≈ 2.24 µM)
MFC (C. glabrata strains [4]; [22]): 1 (5×) and 2
MIC Range (C. krusei strains [5]; C. krusei strains, in µg/mL): 0.5-2
MIC50 (C. krusei strains [5]; C. krusei, inhibits 50% of strains): 1 µg/mL (≈ 1.12 µM)
MIC90 (C. krusei strains [5]; C. krusei, inhibits 90% of strains): 2 µg/mL (≈ 2.24 µM)
MIC (C. krusei strains [5]; [23]): 0.5 µg/mL (≈ 0.559 µM)
MFC Range (C. krusei strains [6]; C. krusei strains, in µg/mL): 0.5-2
MFC50 (C. krusei strains [6]; C. krusei, kills 50% of strains): 1 µg/mL (≈ 1.12 µM)
MFC90 (C. krusei strains [6]; C. krusei, kills 90% of strains): 2 µg/mL (≈ 2.24 µM)
MFC (C. krusei strains [6]; [23]): 2 µg/mL (≈ 2.24 µM)
MIC Range (C. parapsilosis; C. parapsilosis strains, in µg/mL): 0.25-2
MIC50 (C. parapsilosis; C. parapsilosis, inhibits 50% of strains): 0.25 µg/mL (≈ 0.28 µM)
MIC90 (C. parapsilosis; C. parapsilosis, inhibits 90% of strains): 2 µg/mL (≈ 2.24 µM)
MIC (C. parapsilosis; individual C. parapsilosis strain with elevated MICs to non-polyene comparators (Table 22)): 0.5 (2×) and 1
MIC Range (all Candida strains [7]; in µg/mL): 0.125-8
MIC50 (all Candida strains [7]; inhibits 50% of strains): 1 µg/mL (≈ 1.12 µM)
MIC90 (all Candida strains [7]; inhibits 90% of strains): 2 µg/mL (≈ 2.24 µM)
MFC Range (all Candida strains [8]; in µg/mL): 0.125-16
MFC50 (all Candida strains [8]; kills 50% of strains): 1 µg/mL (≈ 1.12 µM)
MFC90 (all Candida strains [8]; kills 90% of strains): 2 µg/mL (≈ 2.24 µM)
MIC Range (Cr. neoformans strains [9]; Cr. neoformans strains, 72 h, in µg/mL): 0.5-2
MIC50 (Cr. neoformans strains [9]; Cr. neoformans, inhibits 50% of strains): 1 µg/mL (≈ 1.12 µM)
MIC90 (Cr. neoformans strains [9]; Cr. neoformans, inhibits 90% of strains): 1 µg/mL (≈ 1.12 µM)
MFC50 (Cr. neoformans strains [10]; kills 50% of strains): 1 µg/mL (≈ 1.12 µM)
MFC90 (Cr. neoformans strains [10]; kills 90% of strains): > 4 µg/mL
MIC Range ([11]; in µg/mL): 1-4
MIC50 ([11]; inhibits 50% of strains): 2 µg/mL (≈ 2.24 µM)
MIC90 ([11]; inhibits 90% of strains): 2 µg/mL (≈ 2.24 µM)
MIC Range ([12]; in µg/mL): 1-2
MIC50 ([12]; inhibits 50% of strains): 2 µg/mL (≈ 2.24 µM)
MIC90 ([12]; inhibits 90% of strains): 2 µg/mL (≈ 2.24 µM)
MFC50 ([13]; kills 50% of strains): 2 µg/mL (≈ 2.24 µM)
MFC90 ([13]; kills 90% of strains): 4 µg/mL (≈ 4.47 µM)
MFC50 ([14]; kills 50% of strains): > 4 µg/mL
MFC90 ([14]; kills 90% of strains): > 4 µg/mL
MFC50 ([15]; kills 50% of strains): 4 µg/mL (≈ 4.47 µM)
MFC90 ([15]; kills 90% of strains): > 4 µg/mL
MIC Range (Fusarium strains; in µg/mL): 1-4
MIC50 (Fusarium strains; inhibits 50% of strains): 2 µg/mL (≈ 2.24 µM)
MIC90 (Fusarium strains; inhibits 90% of strains): 4 µg/mL (≈ 4.47 µM)
MIC Range ([16]; in µg/mL): 1-4
MIC50 ([16]; inhibits 50% of strains): 2 µg/mL (≈ 2.24 µM)
MIC90 ([16]; inhibits 90% of strains): 4 µg/mL (≈ 4.47 µM)
MFC50 ([17]; kills 50% of strains): 2 µg/mL (≈ 2.24 µM)
MFC90 ([17]; kills 90% of strains): > 4 µg/mL
MIC Range (Penicillium strains [18]; Penicillium strains, in µg/mL): 0.5-2
MIC50 (Penicillium strains [18]; Penicillium, inhibits 50% of strains): 2 µg/mL (≈ 2.24 µM)
MIC90 (Penicillium strains [18]; Penicillium, inhibits 90% of strains): 2 µg/mL (≈ 2.24 µM)
MFC50 (Penicillium strains [19]; kills 50% of strains): 2 µg/mL (≈ 2.24 µM)
MFC90 (Penicillium strains [19]; kills 90% of strains): 4 µg/mL (≈ 4.47 µM)
MIC (A. fumigatus AF91): 2 µg/mL (≈ 2.24 µM)
MFC (C. albicans SC5314): 0.5 µg/mL (≈ 0.559 µM)
Brain tissue fungal burden, Mean log CFUs ± the standard deviation (Candida albicans SC5314; Experiment I, 0.35 mg/kg i.v.): 2.92 ± 1.21 log CFUs
Kidney tissue fungal burden, Mean log CFUs ± the standard deviation (Candida albicans SC5314; Experiment I, 0.35 mg/kg i.v.): 3.16 ± 1.41 log CFUs
Brain tissue fungal burden, Mean log CFUs ± the standard deviation (Candida albicans SC5314; Experiment I, 0.7 mg/kg i.v.): 3.59 ± 1.20 log CFUs
Kidney tissue fungal burden, Mean log CFUs ± the standard deviation (Candida albicans SC5314; Experiment I, 0.7 mg/kg i.v.): 2.66 ± 2.11 log CFUs
Brain tissue fungal burden, Mean log CFUs ± the standard deviation (Candida albicans SC5314; Experiment II, 0.35 mg/kg i.v.): 3.55 ± 1.26 log CFUs
Kidney tissue fungal burden, Mean log CFUs ± the standard deviation (Candida albicans SC5314; Experiment II, 0.35 mg/kg i.v.): 3.53 ± 0.63 log CFUs
Brain tissue fungal burden, Mean log CFUs ± the standard deviation (Candida albicans SC5314; Experiment II, 0.7 mg/kg i.v.): 2.97 ± 2.04 log CFUs
Kidney tissue fungal burden, Mean log CFUs ± the standard deviation (Candida albicans SC5314; Experiment II, 0.7 mg/kg i.v.): 2.99 ± 1.05^a,b log CFUs
Kidney tissue fungal burden, Mean log CFUs ± the standard deviation ([20]; Experiment I, 0.5 mg/kg i.v.): 3.16 ± 0.40 log CFUs
Lung tissue fungal burden, Mean log CFUs ± the standard deviation ([20]; Experiment I, 0.5 mg/kg i.v.): 3.46 ± 0.49 log CFUs
Kidney tissue fungal burden, Mean log CFUs ± the standard deviation ([20]; Experiment I, 1.0 mg/kg i.v.): 0.51 ± 1.02 log CFUs
Lung tissue fungal burden, Mean log CFUs ± the standard deviation ([20]; Experiment I, 1.0 mg/kg i.v.): 0.55 ± 1.10 log CFUs
Kidney tissue fungal burden, Mean log CFUs ± the standard deviation [20, 24]: 2.93 ± 0.73 log CFUs
Lung tissue fungal burden, Mean log CFUs ± the standard deviation [20, 24]: 2.75 ± 0.93 log CFUs
Kidney tissue fungal burden, Mean log CFUs ± the standard deviation [20, 25]: 1.16 ± 1.10 log CFUs
Lung tissue fungal burden, Mean log CFUs ± the standard deviation [20, 25]: 1.17 ± 1.15 log CFUs
